The text below walks through data of patent publication US20220395487A1, “RIG-I INNATE IMMUNE RECEPTOR ANTAGONISTS AND METHODS OF USING SAME” (YALE UNIVERSITY, priority 2019, published 2022).

Experiment [1] addresses T1, RIG-I (Homo sapiens, UniProt O95786).
T1 sequence (O95786 1-925): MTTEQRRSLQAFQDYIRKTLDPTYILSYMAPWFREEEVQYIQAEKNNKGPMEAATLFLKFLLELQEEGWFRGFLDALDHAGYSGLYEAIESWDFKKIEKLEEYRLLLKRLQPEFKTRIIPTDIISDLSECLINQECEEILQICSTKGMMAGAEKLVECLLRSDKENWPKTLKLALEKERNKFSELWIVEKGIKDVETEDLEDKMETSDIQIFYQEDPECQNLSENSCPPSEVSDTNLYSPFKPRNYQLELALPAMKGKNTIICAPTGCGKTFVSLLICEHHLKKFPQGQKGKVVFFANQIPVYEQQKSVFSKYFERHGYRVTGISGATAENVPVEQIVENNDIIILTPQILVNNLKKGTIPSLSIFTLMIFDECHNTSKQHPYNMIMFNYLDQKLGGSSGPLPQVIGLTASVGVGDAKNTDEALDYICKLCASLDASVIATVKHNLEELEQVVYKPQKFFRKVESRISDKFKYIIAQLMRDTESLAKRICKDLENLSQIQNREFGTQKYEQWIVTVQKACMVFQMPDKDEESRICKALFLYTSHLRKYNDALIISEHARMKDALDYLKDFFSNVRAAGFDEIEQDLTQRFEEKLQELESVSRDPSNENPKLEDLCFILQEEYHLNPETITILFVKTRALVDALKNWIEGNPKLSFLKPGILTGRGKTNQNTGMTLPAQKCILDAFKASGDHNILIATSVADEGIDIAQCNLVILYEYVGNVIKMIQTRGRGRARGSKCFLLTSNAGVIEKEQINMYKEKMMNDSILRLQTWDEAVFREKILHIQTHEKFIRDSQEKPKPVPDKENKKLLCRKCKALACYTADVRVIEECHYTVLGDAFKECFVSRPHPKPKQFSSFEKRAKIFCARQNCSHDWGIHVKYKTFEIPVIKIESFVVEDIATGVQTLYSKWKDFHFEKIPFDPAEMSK
The experiment can be described thus: ADP-Glo ATPase assay. It is filed as biochemical. On the set-up: The native, full-length protein was expressed and purified using methods adapted from published protocols; SUMO (pET-SUMO vector; captured on Ni-NTA) (N, cleaved yes); made in house; host or cells: Rosetta II(DE3) Escherichia coli. The conditions noted are these: Poly I:C RNA activation, read-out: apparent IC50, RIG-I ATPase inhibition. Here is the method:
For the ADP-Glo assay system (V9101, Promega), RIG-I protein was diluted to 10 nM in assay buffer (25 mM MOPS pH 7.4, 150 mM NaCl, 2 mM DTT, and 2 mM Mg^2). For HTS experiments, Poly I:C RNA was used for RIG-I activation, and added to a final concentration of 0.4 μg/ml. To initiate the ATPase reactions, ATP was added to a final concentration of 200 μM. To test compounds, a 12-point serial dilution of the small molecule of interest was combined with DMSO, keeping the DMSO levels at a constant 1% throughout the entire drug dilution. Final drug concentrations ranged from 0 to 200 μM. The final volume for reaction was 20 μL per well, measured in a Corning 384-well plate (Plate ID: 3658). Reactions were allowed to proceed at room temperature for one hour, after which 2.5 μL of the ADP-Glo Reagent was added to each well. Samples were incubated at 25° C. for 45 min to terminate the ATPase reaction and deplete the remaining ATP. Next, 5 μL of Kinase Detection Reagent was added to each well in order to convert the ADP product back to ATP, which is then used as a substrate for the luminescent reporter, which was read on a Biotek Synergy HI Plate Reader.
Slopes from the twelve point curves were fit to a non-competitive, four variable inhibition curve in order to obtain IC50 values:
where X is Log10 [compound], Y is luminescence, Top and Bottom are the plateaus at Ymin and Ymax. […]
On the technique in general: ADP-Glo first removes unused ATP, then detects ADP through luciferase.

For experiment [2], the target named is T1, RIG-I. The experiment can be described thus: NADH-coupled ATPase assay. It is filed as biochemical. On the set-up: The native, full-length protein was expressed and purified using methods adapted from published protocols; SUMO (pET-SUMO vector; captured on Ni-NTA) (N, cleaved yes); made in house; host or cells: Rosetta II(DE3) Escherichia coli. The conditions noted are these: for IC50: NADH-coupled ATPase assay; for RIG-I ATPase inhibition, result in words: SAR discussion of Table 1 compounds. The procedure: In this case, RIG-I was activated by a well-defined synthetic RNA hairpin duplex (SLR10-OH), which was added to a final concentration of 250 nM. A coupled assay mixture consisting of 1 mM NADH, 100 U/ml lactic dehydrogenase, 500 U/ml pyruvate kinase, 2.5 mM phosphoenol pyruvic acid was added to the sample. A 12-point serial dilution of the compound of interest was added in a DMSO vehicle such that DMSO concentrations were kept at a constant 2% over the entire drug dilution. The final concentration ranges for drug dilutions varied from compound to compound based on the potency of the small molecule in question. The dilutions covered ranges from 0 to as high as 100 μM (see association figures). Samples were incubated for at least 1 hour at RT. Reactions were initiated by the addition of a 1:1 ATP/MgCl2 mix to a final concentration of 5 mM.
The rate of ATP hydrolysis was determined indirectly by monitoring the conversion of NADH to NAD^+ that results in a loss of sample absorbance at 340 nm. Absorbance was measured over a 20 min time course using a sweeping read at 10 second intervals and a gain setting of 120 on a Biotek Synergy H1 Plate Reader. Mean kobs values were extrapolated for each time course and plotted against drug concentration, then fit to Eq. (1) to determine IC50 values. Each point was a based on two trials of three biological replicates with error bars representing the Standard deviation.

Experiment [3] has as its target T1, RIG-I. The experiment in a line: IFN-β/Firefly dual-luciferase reporter assay in HEK 293T cells transfected with hRIG-I. Format: cell-based. The note with it: HEK293T cells, SLR14 challenge. Here is the method:
Two different assays were used for evaluating RIG-I inhibition in cells. In the first assay, HEK 293T cells were used to test the influence of compounds on RIG-I signaling activity while simultaneously reporting on relative toxicity. In this case, inhibitor compounds were introduced via growth media replacement rather than by direct addition to cell plates. Specifically, HEK 293T cells (which express RIG-I only under the control of a transfected plasmid) were grown and maintained in T75 flasks containing Dulbecco's Modified Eagle Medium, DMEM (Life Technologies) supplemented with 10% heat-inactivated fetal bovine serum (Hyclone) and non-essential amino acids (Life Technologies). For the IFN-β induction assays, 0.5 ml of cells at 65,000 cells/ml was placed (seeded) in 24-well plates. After 24 h, each well of cells was transfected with 5 ng WT pUNO-hRIG-I (Invivogen), 6 ng pRL-TK constitutive Renilla luciferase reporter plasmid (Promega) and 150 ng of an IFN-β/Firefly luciferase reporter plasmid using the Lipofectamine 2000 transfection reagent (Life Technologies) following the manufacturer's protocol. Protein expression was allowed to proceed for 24 hours. In parallel, a six-point dilution series of each compound of interest was made in a DMSO vehicle and then diluted further into DMEM such that a constant DMSO concentration of 1% is maintained over the entire drug dilution. The DMEM growth media was aspirated from each well of cells and replaced with DMEM that contains the drug. After 30 minutes, the cells were challenged by transfection with 1 μg of the synthetic stem-loop RNA (SLR14) in Lipofectamine 2000. After 5-6 hours, cells were harvested for luminescence analysis in the following manner: Growth media was aspirated from each well, and 100 μl of passive lysis buffer (Promega) was added. Lysis proceeded for 15 min at room temperature. Lysates were clarified by centrifugation, and 20 μl samples of the supernatant were transferred to a 96-well assay plate for analysis using the Dual-Luciferase Reporter Assay System (Promega). Luminescence was measured using a Biotek Synergy H1 plate reader. The resulting Firefly luciferase activity (i.e. the induction of IFN-0) was normalized to the activity of the constitutively expressed Renilla luciferase to account for differences in confluency, transfection efficiency and cell viability across sample wells.
(In general: A reporter such as luciferase makes a cellular process visible.)

The mark [4] stands for this setting: SLR10-OH activated, mean ± standard deviation, 3 measurements, read-out: IC50.

Structures are written as SMILES.

On to `CC1(C)C(=O)N=C2C1=C(O)C(=O)c1ccccc12` [RIG001, 4-Hydroxy-3,3-dimethyl-2H1,3H,5H1-benzo[g]indole-2,5-dione], for which the results for the IC50 at RIG-I [1] and at RIG-I [2] (read-out: IC50 value in the coupled assay system) were 19 ± 3 µM and 12 ± 1 µM, respectively.
As to `CC1(C)C(=O)N=C2C1=C(OCc1nc3ccccc3[nH]1)C(=O)c1ccccc12` [RIG008, 4-(1H-1,3-Benzodiazol-2-ylmethoxy)-3,3-dimethyl-2H,3H,5H-benzo[g]indole-2,5-dione], the IC50 on RIG-I [2] (setting [4]) turned out to be 1.8 ± 0.3 µM.
Regarding `COC1=C2C(=NC(=O)C2(C)C)c2ccccc2C1=O` [RIG002, 4-Methoxy-3,3-dimethyl-2H,3H,5H-benzo[g]indole-2,5-dione], the IC50 on RIG-I [2] (setting [4]) is 6.3 ± 0.6 µM.
Consider `O=C1C(O)=C2C(=NC(=O)C23CCCCC3)c2ccccc21` [RIG009, 4-Hydroxy-2,5-dihydrospiro[benzo[g]indole-3,1′-cyclohexane]-2,5-dione], for which the IC50 at RIG-I [2] (setting [4]) turned out to be 2.4 ± 0.3 µM.
For the molecule `CCC1(CC)C(=O)N=C2C1=C(O)C(=O)c1ccccc12` [RIG011, 3,3-Diethyl-4-hydroxy-2H,3H,5H-benzo[g]indole-2,5-dione], the IC50 at RIG-I [2] (setting [4]) came to 0.89 ± 0.04 µM. Besides, the “RIG-I ATPase inhibition, result in words” value at RIG-I [2] is “nanomolar IC50 values”.
Regarding `CC1(C)C(=O)N=C2C1=C(OCc1ccc3ccccc3c1)C(=O)c1ccccc12` [RIG013, 3,3-Dimethyl-4-(naphthalen-2-ylmethoxy)-2H,3H,5H-benzo[g]indole-2,5-dione], the IC50 is 1.36 µM on RIG-I [3] (compound in growth medium, read-out: IC50, inhibition of RIG-I signaling (IFN induction luciferase)) and 2.1 ± 0.2 µM on RIG-I [2] (setting [4]).
Consider `COc1c2c(c3ccccc3c1OC)NC(=O)C2(C)C` [RIG004, 4,5-Dimethoxy-3,3-dimethyl-1H,2H,3H-benzo[g]indol-2-one], for which, on RIG-I [2], the “RIG-I ATPase inhibition, result in words” value is reported as “loss of function”.
Take `CC1(C)C(=O)N=C2C1=C(OCc1ccccc1)C(=O)c1ccccc12` [RIG005, 4-Benzyloxy-3,3-dimethyl-2H,3H,5H-benzo[g]indole-2,5-dione]: the half-inhibitory concentration (IC50) at RIG-I [2] (setting [4]) was 2.6 ± 0.2 µM.
The same measure, in the same setting: in the case of `O=C1C(OCc2ccccc2)=C2C(=NC(=O)C23CCCCC3)c2ccccc21` [RIG010, 4-(Benzyloxy)-2,5-dihydrospiro[benzo[g]indole-3,1′-cyclohexane]-2,5-dione] it was 4.7 ± 0.3 µM; in that of `CC(C)COC1=C2C(=NC(=O)C2(C)C)c2ccccc2C1=O` [RIG006, 4-(2,2-Dimethylethoxy)-3,3-dimethyl-2H,3H,5H-benzo[g]indole-2,5-dione], 2.1 ± 0.2 µM.
Same read-out and setting: in the case of `CCOC1=C2C(=NC(=O)C2(C)C)c2ccccc2C1=O` [RIG007, 4-Ethoxy-3,3-dimethyl-2H,3H,5H-benzo[g]indole-2,5-dione] it was 1.8 ± 0.1 µM.
On to `COc1c2c(c3ccccc3c1OC)N(C)C(=O)C2(C)C` [RIG003, 4,5-Dimethoxy-1,3,3-trimethyl-1H,2H,3H-benzo[g]indol-2-one], for which the “inhibition of RIG-I signaling / IFN induction, result in words” value on RIG-I [3] is “did not influence levels of IFN induction or RIG-I response”.

As usually defined, the IC50 is the concentration needed to halve the response being measured.
